# Source: patent US9765115B2, “Inhibitors of metastasis, methods of generating such inhibitors and their therapeutic applications” (Board of Supervisors of Louisiana State University acting …, priority 2011, dated 2017)
# “Also recorded” adds a separate entry of the source.
# Target: T1, CTR-ZO-1 interaction (Homo sapiens, UniProt P30988)
# T1 construct: PCR generated full length CTRwt and CTRΔESS cDNAs were cloned directionally into pcDNA3.1 mammalian expression vector; FLAG (N); expressed in transfected cells; host or cells: PC-31 / PC-3 cells stably expressing FLAG-CTRwt; ZO-1 is the cells' own
# T1 sequence (P30988 25-474): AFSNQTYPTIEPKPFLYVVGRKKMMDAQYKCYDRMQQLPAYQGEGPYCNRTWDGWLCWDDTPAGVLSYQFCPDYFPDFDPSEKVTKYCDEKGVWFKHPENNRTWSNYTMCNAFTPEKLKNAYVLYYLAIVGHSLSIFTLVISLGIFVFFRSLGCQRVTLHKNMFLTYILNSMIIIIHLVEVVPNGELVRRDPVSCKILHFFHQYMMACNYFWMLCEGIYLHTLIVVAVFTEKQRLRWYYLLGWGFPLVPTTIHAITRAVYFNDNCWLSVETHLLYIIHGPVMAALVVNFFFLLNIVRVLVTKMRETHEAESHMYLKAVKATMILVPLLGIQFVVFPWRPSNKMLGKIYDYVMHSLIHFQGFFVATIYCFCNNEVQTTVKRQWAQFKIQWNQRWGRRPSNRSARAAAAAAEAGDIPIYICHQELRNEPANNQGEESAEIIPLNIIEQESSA
# Assay: CTR-ZO-1 co-immunoprecipitation
# Type: cell-based
# Settings: for co-precipitation of ZO-1 by CTRwt: 3 min, PC-3 cells
# Description: Serum-starved PC-31-V, PC-31-CTRwt or PC-31-CTRΔESS cells (2×10^6 per 100 mm dish) were stimulated with or without 50 nM CT for 3 min, washed, and lysed in the IP buffer as previously described (von Zastrow et al., 1994). CTR in normalized lysate proteins was immunoprecipitated with anti-FLAG EZ-view beads (Sigma Chemical Co., St. Louis, Mo.), and eluted with FLAG peptide (600 μg/ml in PBS). CTR immunoprecipitates were processed for ZO-1 immunoblotting. To control for protein loading and transfer, the blots were stripped and reprobed with immunoprecipitating antibody.
# PC-31 cells stably expressing either FLAG-CTRwt or FLAGCTRΔESS were treated with or without CT for 3 min. The analysis of FLAG-CTR IPs confirmed that only FLAG-CTRwt, but not FLAG-CTRΔESS, co-precipitated ZO-1 (FIG. 3B). […] The effect of multiple CT concentrations on CTR-ZO-1 co-precipitation was tested in PC-3 cells. […] However, co-precipitation of ZO-1 by CTRwt was strong in PC-3 cells stimulated with 10 nM CT, and was even stronger in the cells receiving 100 nM CT.
# As shown above, CTR binds to ZO-1 through PDZ interaction (i.e. PDZ ligand on C-tail of CTR binds to the PDZ domain of ZO-1). To attenuate this binding, ZO-1 was saturated with a small C-terminal peptide of CTR sequence containing the PDZ-binding motif. Since ZO-1 is an intracellular membrane protein, the interfering peptide was delivered inside the plasma membrane. It has been shown that trans-activating transcriptional activator (TAT) protein (86-mer polypeptide) from HIV-1 enters mammalian cells when added to the surrounding media (Frankel et al., 1988; Green et al., 1989). Certain small regions of such proteins (10-16-mers) called protein transduction domains (PTDs), also efficiently traverse biological membranes (Elliott et al., 1997). Therefore, a fusion peptide Pep 1 was synthesized of TAT-peptide sequences of HIV virus and CTR-C(N-[…]-C (SEQ ID NO:2), CTR-C sequence underlined). The first experiment was to see if Pep I binds to ZO-1 in reversible fashion. For this, amino acid Y in Pep I was labeled with ^125I, and the binding with ZO-1 analyzed in the presence/absence of unlabeled Pep I (1000×; 20 μM). PC-3CTR-ZO-1-MYC cells were first incubated with unlabeled Pep I or control peptide (20 μM) for 5 min. The cells were then incubated with ^125I-pep I or C for 25 min. The cells were then washed in IP buffer, treated with DSP, and lysed. ZO-1 IPs were obtained, fractionated on SDS-PAGE, and autoradiographed. […] Next, whether Pep I competes with CTR for ZO-1 binding was tested. For this, PC-3-CTR-wt cells were treated with CT (50 nM) and or Pep I (50 μM) for 15 min. The CTR IPs were then immunoblotted and probed for ZO-1 immunoreactivity. […] Next, the biological impact of this phenomenon was examined by testing the effect of Pep I on CTR-stimulated invasion.
substance,measurement,setting,value
calcitonin [CT],co-precipitation of ZO-1 by CTRwt,1 nM CT,barely detectable
same,co-precipitation of ZO-1 by CTRwt,10 nM CT,strong
same,"co-precipitation of ZO-1 with CTRwt, activated versus dormant",CT 50 nM,much more efficiently; also recorded: increased
